Reference: patent US20230399374A1, “Compounds, Compositions and Methods of Use to Treat Bone Fractures” (PURDUE RESEARCH FOUNDATION, priority 2020, published 2023)
Non-standard residues stand in square brackets, D forms with d. No end group written: not given here. Aib = CC(C)(N)C(=O)O

What was measured:
[1] = system: type I diabetic femur fracture; test: Fracture repair model, type I diabetes, compounds dosed in conjunction with insulin; assay type: in vivo, mice; conditions: with insulin 2 IU/day; for strength (maximum force, work to fracture, modulus): significance relative to insulin-treated group, FIG. 22A-C
Description: (§1) Targeted conjugates of SEQ ID NO: 5, abaloparatide (SEQ ID NO: 2), SEQ ID NO: 6, and SEQ ID NO: 9 (a conjugate with 10 aspartic acid residues) were synthesized using Fmoc solid-phase peptide synthesis. From SEQ ID NO: 5, amino acids 1-34 were used, and abaloparatide (SEQ ID NO: 2) is a stabilized version of amino acids 1-36 of SEQ ID NO: 1. Diabetes was induced in 40 8-week-old male CD-1 mice via seven subcutaneous injections of streptozotocin (STZ) until blood sugar readings were above 250 mg/dL. The mice were left in this confirmed diabetic state for 2 months to allow the diabetes to take effect on the bones. Then, aseptic surgical techniques were used to place a 23-gauge needle as an intramedullary nail in the femur of the anesthetized mice for internal fixation before fracture was induced with a drop-weight fracture device from RISystem and confirmed by x-ray. The mice received buprenorphine for three days post-fracture. They were dosed subcutaneously with a positive control of insulin, a negative control of vehicle, SEQ ID NO: 5, or abaloparatide (SEQ ID NO: 2) each day for 4 weeks. Fracture healing was assessed qualitatively using micro-CT (Scanco Medical Ag). Fractured femurs were tested for strength in a 4-point-bend-to-failure using an ElectroForce TestBench (TA Instruments, New Castle, DE). Maximum load, stiffness, displacement post-yield, and work-to-fracture data were generated. Statistical analysis was performed using a one-way analysis of variance (ANOVA) with significance reported with p values less than 0.05 (*) and 0.01 (**).
However, since […] patients will not stop taking their insulin to take a compound provided herein, the experiment was repeated with compounds dosed in conjunction with insulin (FIGS. 20-22). […]
For FIGS. 22A-22C, insulin was dosed at 2 IU/day in all groups, except for saline. […] All significance levels were calculated relative to the insulin-treated group, not the saline control group. […]

[2] = system: midshaft femoral fractures; test: Midshaft femur fracture healing in otherwise healthy mice (micro-CT, bend to failure); assay type: in vivo; conditions: for bone deposition in CT images: three weeks after initiation of treatment, FIG. 35
From the text: In some instances, elevated accumulation of SEQ ID NO: 4 at the fracture site improves fracture healing (e.g., FIGS. 26-30). In some instances, femur fracture healing times following administration of a starting dose calculated by allometric scaling of the human dose prescribed for abaloparatide (SEQ ID NO: 2) treatment of osteoporosis are compared.
Bone morphometric analyses confirmed a 1.5-fold increase in the ratio of mineralized volume (bone volume; BV) to total bone volume (total volume; TV) in the SEQ ID NO: 4-treated mice.
In some instances, such as, to establish whether the observed increase in bone deposition translates into an improvement in mechanical properties, the force required to bend the healed femurs until they fractured again was measured.
In some instances, the force to fracture in the SEQ ID NO: 4-treated mice exceeded that required to fracture the contralateral healthy femurs in the same mice or similar, unmodified femurs in saline-treated mice.
The length of the targeting oligopeptide was increased to determine if it increased the drug's affinity for broken bone sufficiently that retention of the anabolic payload at the fracture site would be prolonged and less frequent dosing may be required. Mice were doses once every three days, rather than daily. […] The results are shown in FIG. 34, which is a graph of treatment (saline, SEQ ID NO: 3 (0.1 nmol/mg (0.1×), 1 nmol/mg (1×), and 10 nmol/mg (10×), and SEQ ID NO: 4 (0.1 nmol/mg (0.1×), 1 nmol/mg (1×), and 10 nmol/mg (10×)) vs. max load (N) of mice with midshaft femoral factures.

[3] = system: fracture site (fractured femur); design: species or system mice; conditions: mouse, in vivo; for cumulative residence time (AUC) at the fracture site / half-life at the fracture site: sc
From the text: (§2) SEQ ID NO: 4 was subcutaneously injected into fracture-bearing mice. […] The results are shown in FIG. 30, which is a graph of hours vs. percent injected dose in blood (cpm/g) of mice with midshaft femoral factures. […] The results are shown in FIG. 31, which is a graph of hours vs. percent injected dose in bone (cpm/g) of mice with midshaft femoral factures.

[4] = design: species or system mice; conditions: mouse, in vivo, sc
From the text: as §2

[5] = system: midshaft femur fracture; test: Pain/function outcomes, locomotor open-field testing after midshaft femur fracture; assay type: in vivo, mice; conditions: for pain/function outcomes, well-being in the open field: 5 weeks post-fracture, measured once a week
Description: Pain/function outcomes in mice were accessed by turning to behavioral testing. Allodynia was evaluated using Von Frey probes, whereas gain was evaluated using DigiGait, functionality was evaluated using running wheels, and anxiety coupled with functionality was evaluated using locomotor open-field testing. Open-field locomotor testing afforded the most consistent measurements.
Mice were habituated to the behavior room for 30-60 minutes before testing locomotor activity. Animals were habituated once for 10 minutes to the locomotor boxes prior to the start of the experiment. They were then placed individually in a locomotor box with infrared light tracking beams for 10 minutes before being removed and placed back in their home cage. The mice were tracked via EthoVision using 3-point directionality testing. Mice were measured for two weeks prior to the experiment. They then underwent the midshaft femur fracture model and were assigned to one of three treatment groups: 1) abaloparatide DE20 twice a week; 2) phosphate buffered saline twice a week; or 3) ibuprofen (0.6 g/L) in their water. The mice were treated for 5 weeks post-fracture and measured once a week.
For FIGS. 26-28, day 0 represents the baseline data pre-fracture. Saline and SEQ ID NO: 4 (1 nmol) were injected twice/week. Ibuprofen was administered constantly in the mice's water at a concentration of 0.6 g/L.

[6] = system: type I diabetic femur fracture; assay type: in vivo; conditions: for callus mineralization (BV) and bone density (BV/TV): four weeks of treatment, micro-CT, FIG. 13 and 14; for strength of the fractures (max load, work to fracture): four weeks, 4-point bend, FIG. 15 and 16
Description: as §1
Four compounds were tested. […] Abaloparatide (SEQ ID NO: 2) is a stabilized version of parathyroid-related protein hormone. Dasatinib is an […] with off-target effects on both osteoblasts and osteoclasts that improve overall bone density. Dasatinib has also proven to be a senolytic. ITGA is a fibronectin mimetic that promotes intramembranous bone fracture healing. […] Therefore, it was hypothesized that the glucose regulating properties of full-length SEQ ID NO: 5 may be beneficial in healing type I diabetic fractures as a dual-action compound that may improve healing via two mechanisms. The compounds were compared against insulin as a positive control and saline as a negative control.
BV represents the bone volume of the 100 thickest micro-CT slices of the fracture callus and is a measure of how much bone has mineralized at the site of fracture repair. BV/TV represents the BV divided by TV of the 100 thickest micro-CT slides of the fracture callus and is a measure of how dense the bone is at the site of fracture repair. Insulin was dosed as 2 IU/day. Doses of 0.1×, 50×, and 10×, are […], and 10 nmol, respectively, of the conjugate delivered daily by subcutaneous injection. SEQ ID NO: 6 was dosed at 10 μmol/kg every other day.
Insulin was dosed at 2 IU/day. Doses of 0.1×, 50×, and 10×, are 0.1 nmol, 50 nmol, and […], of the conjugate delivered daily by subcutaneous injection. SEQ ID NO: 6 was dosed at 10 μmol/kg every other day.

[7] = dosed once every three days, FIG. 34

SEQ ID NO: 8: cyclic peptide 102, a conjugate with 10 glutamic acid residues (HEEEEEEEEEERRETAWA; also: cyclic, ring not given here)
mineralization of the callus (bone volume) ([1]; four weeks, FIG. 20A): improved the mineralization of the callus better than insulin | strength (maximum force, work to fracture, modulus) [1]: significantly improved the strength compared to the insulin control

AVSEHQLLHDKGKSIQDLRRRELLEKLLxKLHTAEIRATSEVSPNSeeeeeeeeeeeeeeeeeeee [SEQ ID NO: 4]
maximum load relative to free abaloparatide-treated femurs ([2]; FIG. 32): 2.5 fold | work to fracture relative to abaloparatide-treated femurs ([2]; FIG. 33): 3.5 fold | max load compared to saline (significance) [2, 7]: significantly higher | maximum load before breakage, abalode 20 versus abalode 10, greater strength ([2]; dosed once every three days, trend, FIG. 34): 20-30% | relative effectiveness at improving bone healing ([2]; mouse, in vivo): more effective (e.g., at improving bone healing) than SEQ ID NO: 3 | time at which bones return to their previous unbroken strength ([2]; mouse, in vivo): between two and three weeks post-fracture | bone deposition in CT images [2]: distributed (e.g., more) evenly across the fractured area | morphometric basis of the increase in bone density ([2]; three weeks of therapy): primarily due to a reduction in trabecular spacing, rather than an increase in trabecular thickness | increase in the ratio of bone volume to total volume (BV/TV) ([2]; three weeks of therapy, compared with abaloparatide-treated mice): 1.5 fold | strength of repaired femurs above original unbroken femurs ([2]; versus contralateral healthy femurs): 30% | cumulative residence time (AUC) at the fracture site relative to abaloparatide [3]: 11 fold | residence time in the contralateral femur, fold lower than in the fractured femur [3]: 8 fold | cumulative residence time (AUC) at the fracture site [3]: 96 h | half-life at the fracture site [3]: 67 h | circulation half-life [4]: 3.7 h | cumulative systemic exposure (AUC) [4]: 20 h | distance traveled in 10 minutes ([5]; 1 nmol twice/week, FIG. 26): began to run farther | time spent moving in 10 minutes ([5]; 1 nmol twice/week, FIG. 27): began to run for longer periods of time | mean velocity in 10 minutes ([5]; 1 nmol twice/week, FIG. 28): began to run faster | pain/function outcomes, well-being in the open field [5]: more functionality and better well-being

abaloparatide [SEQ ID NO: 2, reference compound]
strength (maximum force, work to fracture, modulus) [1]: significantly improved the strength compared to the insulin control | callus mineralization (BV) and bone density (BV/TV) [6]: impacting density the most | bone deposition in CT images [2]: concentrated on the periphery of the fracture, with minimal density bridging the opposing calluses | cumulative residence time (AUC) at the fracture site [3]: 8 h | half-life at the fracture site [3]: 8.8 h | circulation half-life [4]: 4.2 h | cumulative systemic exposure (AUC) [4]: 24.4 h

CC(C)Cc1ccc(C(C)C(=O)O)cc1 (stereo not drawn) [ibuprofen, reference compound]
pain/function outcomes, well-being in the open field [5]: did not improve their pain/function outcomes

SEQ ID NO: 7: ITGA (fibronectin mimetic cyclic peptide 101) conjugated with 10 glutamic acid residues (HEEEEEEEEEERRETAWA; also: cyclic, ring not given here)
healing in healthy femur fractures ([2]; mouse, in vivo): repeatedly accelerated healing in healthy femur fractures

insulin [reference compound]
callus mineralization (BV) and bone density (BV/TV) [6]: improvement in mineralization | strength of the fractures (max load, work to fracture) [6]: not able to restore the quality of the bone | blood sugar levels ([6]; four-week treatment period, FIG. 18): the only compound to improve blood sugar levels

SEQ ID NO: 3: SEQ ID NO: 15 (AVSEHQLLHDKGKSIQDLRRRELLEKLLxKLHTAEIRATSEVSPNS) followed by eeeeeeeeee, e = D-glutamic acid (AVSEHQLLHDKGKSIQDLRRRELLEKLL[Aib]KLHTAEIRATSEVSPNS[dE][dE][dE][dE][dE][dE][dE][dE][dE][dE])
max load compared to saline (significance) [2, 7]: lacked significance when dosed every three days | healing in healthy femur fractures ([2]; mouse, in vivo): repeatedly accelerated healing in healthy femur fractures | relative effectiveness at improving bone healing ([2]; mouse, in vivo): better than abaloparatide

SEQ ID NO: 6: a targeted conjugate of dasatinib (e.g., D10-ester-dasatinib) ({ester‑dasatinib}-DDDDDDDDDD)
callus mineralization (BV) and bone density (BV/TV) [6]: without improving the callus mineralization | strength of the fractures (max load, work to fracture) [6]: improved strength | change in body mass ([6]; mouse, in vivo): lost weight | toxicity (in words) ([6]; mouse, in vivo): exhibited some toxicity at higher doses | healing in healthy femur fractures ([2]; mouse, in vivo): repeatedly accelerated healing in healthy femur fractures
